Test results: patent publication US8168667B2 (Galapagos NV, priority 2006, dated 2012)
Read-outs that look alike come from different tables or passages of the source.

Target: T1, human androgen receptor (hAR) (Homo sapiens, UniProt P10275)
T1 sequence (P10275 1-920): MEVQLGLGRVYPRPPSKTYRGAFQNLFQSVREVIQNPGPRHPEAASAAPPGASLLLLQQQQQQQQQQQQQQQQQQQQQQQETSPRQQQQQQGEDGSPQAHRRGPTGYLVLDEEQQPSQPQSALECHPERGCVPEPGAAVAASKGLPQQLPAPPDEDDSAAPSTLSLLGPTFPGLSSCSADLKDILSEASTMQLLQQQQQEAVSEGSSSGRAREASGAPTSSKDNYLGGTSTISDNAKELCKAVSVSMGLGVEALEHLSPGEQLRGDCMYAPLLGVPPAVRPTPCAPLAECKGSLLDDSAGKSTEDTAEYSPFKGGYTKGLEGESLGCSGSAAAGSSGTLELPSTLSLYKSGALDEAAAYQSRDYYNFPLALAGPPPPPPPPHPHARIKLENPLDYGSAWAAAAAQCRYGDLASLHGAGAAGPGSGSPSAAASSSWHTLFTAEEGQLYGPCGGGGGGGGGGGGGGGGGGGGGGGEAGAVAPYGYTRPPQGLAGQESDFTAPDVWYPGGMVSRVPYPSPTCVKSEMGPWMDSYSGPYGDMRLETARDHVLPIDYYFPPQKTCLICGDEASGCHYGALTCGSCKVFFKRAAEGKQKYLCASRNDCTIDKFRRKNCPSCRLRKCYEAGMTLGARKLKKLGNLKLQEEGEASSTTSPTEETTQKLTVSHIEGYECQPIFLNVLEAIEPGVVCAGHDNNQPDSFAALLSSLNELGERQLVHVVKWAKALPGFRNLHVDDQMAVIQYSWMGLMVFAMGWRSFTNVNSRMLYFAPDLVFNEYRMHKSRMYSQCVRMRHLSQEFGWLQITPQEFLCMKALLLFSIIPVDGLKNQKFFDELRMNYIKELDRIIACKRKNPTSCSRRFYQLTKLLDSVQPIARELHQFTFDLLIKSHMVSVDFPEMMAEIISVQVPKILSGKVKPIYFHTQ
Assay: Functional response test: hAR transactivation (luciferase reporter) in HALP2 cells
Format: cell-based
Settings: for EC50: agonism, HALP2 cells (HeLa, hAR + ARE-luciferase), 20 hours at 37° C.
Method in brief: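 HALP2 cells are HeLa cells stably transfected with CMV-driven hAR and a probasin ARE-luciferase reporter. They were seeded 24 h ahead, then exposed to compounds for 20 hours at 37° C in phenol red-free DMEM with 5% desteroided serum. Luciferase luminescence was measured after lysis; for antagonist mode, compounds were tested against increasing DHT concentrations.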

[1] = antagonism, concentration which increases the EC50 of the DHT by a factor of 2, Schild regression, HALP2 cells

| EC50 [nM] | KSchild (nM) potency [1] [nM] | Structure (SMILES) | KSchild (nM) potency [nM] |
| --- | --- | --- | --- |
| 30 | 30 | C=CCN1C(=O)N(c2ccc(F)c(F)c2)C(=O)C1c1ccc(O)cc1 (centres unmarked) [Example 14, 1-(3,4-difluorophenyl)-4-(4-hydroxyphenyl)-3-(2-propenyl)imidazolidine-2,5-dione] |  |
| 60 | 60 | CC1(c2ccc(O)cc2)C(=O)N(c2ccc(Cl)c(Cl)c2)C(=O)N1CCC#N (centres unmarked) [Example 145] |  |
| 24.5 | 24.49 | Cc1cc(Cl)ccc1N1C(=O)N(C)C(C)(c2ccc(O)cc2)C1=O (centres unmarked) [Example 28, 1-(4-chloro-2-methylphenyl)-3,4-dimethyl-4-(4-hydroxyphenyl)imidazolidine-2,5-dione] |  |
| 25.3 | 15.49 | C#CCN1C(=S)N(c2ccc(Cl)c(Cl)c2)C(=O)C1(C)c1ccc(O)cc1 (centres unmarked) [Example 41, 1-(3,4-dichlorophenyl)-4-(4-hydroxyphenyl)-4-methyl-3-(2-propynyl)-2-thioxoimidazolidin-5-one] |  |
| 11.3 | 11.29 | CCOC(=O)CCN1C(=O)N(c2ccc(Cl)c(Cl)c2)C(=O)C1c1ccc(O)cc1 (centres unmarked) [Example 15, Ethyl 3-[1-(3,4-dichlorophenyl)-4-(4-hydroxyphenyl)-2,5-dioxoimidazolidin-3-yl]propionate] |  |
| 490 | 489.9 | O=C1C(c2ccc(O)cc2)N(CCO)C(=O)N1c1ccc(F)c(F)c1 (centres unmarked) [Example 140] |  |
| 300 | 300 | CCOCCCN1C(=O)N(c2ccc(F)c(F)c2)C(=O)C1c1ccc(O)cc1 (centres unmarked) [Example 85] |  |
|  |  | COCCOCN1C(=O)N(c2ccc(C#N)c(C(F)(F)F)c2)C(=O)C1(C)c1ccc(O)cc1 (centres unmarked) [Example 238, 4-[2,5-dioxo-4-(4-hydroxyphenyl)-3-[(2-methoxyethoxy)methyl]-4-methylimidazolidin-1-yl]-2-trifluoromethylbenzonitrile] | 15 |
|  |  | Cc1cc(C#N)ccc1N1C(=O)N(C)C(C)(c2ccc(O)cc2)C1=O (centres unmarked) [Example 36, 4-[3,4-dimethyl-2,5-dioxo-4-(4-hydroxyphenyl)imidazolidin-1-yl]-3-methylbenzonitrile] | 69.28 |
|  |  | N#CCCN1C(=O)N(c2ccc([N+](=O)[O-])cc2)C(=O)C1c1ccc(O)cc1 (centres unmarked) [Example 129] | 34.64 |
|  |  | CC1(c2ccc(O)cc2)C(=O)N(c2ccc(C#N)c(C(F)(F)F)c2)C(=O)N1CC(N)=O (centres unmarked) [Example 231, 4-[3-[(aminocarbonyl)methyl]-2,5-dioxo-4-(4-hydroxyphenyl)-4-methylimidazolidin-1-yl]-2-trifluoromethylbenzonitrile] | 60 |
| 26.2 | 26.21 | C=CCN1C(=O)N(c2cccc(C(F)(F)F)c2)C(=O)C1c1ccc(O)cc1 (centres unmarked) [Example 64] |  |
| 5660 | 5656.85 | O=C1C(c2ccc(O)cc2)N(Cc2ccsc2)C(=S)N1c1ccc(Cl)cc1Cl (centres unmarked) [Example 18, 1-(2,4-dichlorophenyl)-4-(4-hydroxyphenyl)-3-[(thiophen-3-yl)methyl]-2-thioxo-imidazolidin-5-one] |  |
| 42.4 | 42.43 | C#CCN1C(=O)N(c2ccc(F)c(C(F)(F)F)c2)C(=O)C1c1ccc(O)cc1 (centres unmarked) [Example 69] |  |
|  |  | CN1C(=O)N(c2ccc(C#N)c3ccccc23)C(=O)C1(C)c1ccc(O)cc1 (centres unmarked) [Example 31, 4-[3,4-dimethyl-2,5-dioxo-4-(4-hydroxyphenyl)imidazolidin-1-yl]naphthonitrile] | 800 |
|  |  | CCC(=O)CN1C(=O)N(c2ccc(C#N)c(C(F)(F)F)c2)C(=O)C1(C)c1ccc(O)cc1 (centres unmarked) [Example 233, 4-[2,5-dioxo-4-(4-hydroxyphenyl)-4-methyl-3-(2-oxobutyl)imidazolidin-1-yl]-2-trifluoromethylbenzonitrile] | 2.45 |
|  |  | N#CCCN1C(=O)N(c2ccc(Cl)c(C(F)(F)F)c2)C(=O)C1c1ccc(O)cc1 (centres unmarked) [Example 125] | 30 |
|  |  | COc1ccc(C2(C)C(=O)N(c3ccc(C#N)c(C(F)(F)F)c3)C(=O)N2C)c(C)c1 (centres unmarked) [Example 163, 4-[3,4-dimethyl-2,5-dioxo-4-(4-methoxy-2-methylphenyl)imidazolidin-1-yl]-2-trifluoromethylbenzonitrile] | 80 |
|  |  | CN1C(=S)N(c2ccc(C#N)c(C(F)(F)F)c2)C(=O)C1(C)c1ccc(O)cc1 (centres unmarked) [Example 44, 4-[3,4-dimethyl-4-(4-hydroxyphenyl)-5-oxo-2-thioxoimidazolidin-1-yl]-2-trifluoromethylbenzonitrile] | 4 |

| EC50 [nM] | KSchild (nM) potency [1] [nM] | Structure (SMILES) | KSchild (nM) potency [nM] |
| --- | --- | --- | --- |
| 122 | 94.87 | CCOC(=O)CCN1C(=O)N(c2ccc(Cl)c(C(F)(F)F)c2)C(=O)C1c1ccc(O)cc1 (centres unmarked) [Example 77] |  |
|  |  | CC1(c2ccc(O)cc2)C(=O)N(c2ccc(C#N)c(C(F)(F)F)c2)C(=O)N1CCO (centres unmarked) [Example 239, 4-[2,5-dioxo-3-(2-hydroxyethyl)-4-(4-hydroxyphenyl)-4-methylimidazolidin-1-yl]-2-trifluoromethylbenzonitrile] | 10 |
| 69.3 | 69.28 | CCOC(=O)CCN1C(=O)N(c2ccc(F)c(Cl)c2)C(=O)C1c1ccc(O)cc1 (centres unmarked) [Example 79] |  |
|  |  | COc1ccc2c(c1)CCC21C(=O)N(c2ccc(C#N)c(C(F)(F)F)c2)C(=O)N1C (centres unmarked) [Example 165, 4-[2′,3′-dihydro-2,5-dioxo-5′-methoxy-3-methylspiro(imidazolidin-4,1′(1H)inden)-1-yl]-2-trifluoromethylbenzonitrile] | 60 |
| 8 | 4.9 | CC1(c2ccc(O)cc2)C(=O)N(c2ccc(Cl)c(Cl)c2)C(=S)N1CCC#N (centres unmarked) [Example 42, 3-[1-(3,4-dichlorophenyl)-4-(4-hydroxyphenyl)-4-methyl-5-oxo-2-thioxoimidazolidin-3-yl]-propionitrile] |  |
|  |  | CCC1(c2cc(F)c(O)c(F)c2)C(=O)N(c2ccc(C#N)c(C(F)(F)F)c2)C(=O)N1C (centres unmarked) [Example 174, 4-[4-(3,5-difluoro-4-hydroxyphenyl)-2,5-dioxo-4-ethyl-3-methylimidazolidin-1-yl]-2-trifluoromethylbenzonitrile] | 6.93 |
|  |  | CC1(c2ccc(O)cc2)C(=O)N(c2ccc(C#N)c(C(F)(F)F)c2)C(=O)N1C1CC1 (centres unmarked) [Example 24.1, 4-[3-cyclopropyl-2,5-dioxo-4-(4-hydroxyphenyl)-4-methylimidazolidin-1-yl]-2-trifluoromethylbenzonitrile] | 10 |
| 49 | 48.99 | C#CCN1C(=O)N(c2ccc(F)c(F)c2)C(=O)C1c1ccc(O)cc1 (centres unmarked) [Example 67] |  |
|  |  | O=C1C(c2ccc(O)cc2)N(CCO)C(=O)N1c1ccc(Cl)c(C(F)(F)F)c1 (centres unmarked) [Example 141] | 17.32 |
| 77.5 | 77.46 | O=C1C(c2ccc(O)cc2)N(Cc2ccc3c(c2)OCO3)C(=O)N1c1ccc(F)c(F)c1 (centres unmarked) [Example 100] |  |
| 30 | 30 | CC1(c2ccc(O)cc2)C(=O)N(c2ccc(Cl)c(Cl)c2)C(=O)N1CCO (centres unmarked) [Example 146] |  |
| 77.5 | 77.46 | CN1C(=O)N(c2ccc(F)c(F)c2)C(=O)C1c1ccc(O)cc1 (centres unmarked) [Example 46] |  |
|  |  | N#CCN1C(=O)N(c2ccc(C#N)c(C(F)(F)F)c2)C(=O)C1c1ccc(O)cc1 (centres unmarked) [Example 90] | 282.84 |
| 94.9 | 77.46 | CCOC(=O)CCN1C(=O)N(c2ccc(F)c(C(F)(F)F)c2)C(=O)C1c1ccc(O)cc1 (centres unmarked) [Example 78] |  |
|  |  | O=C1C(c2ccc(O)cc2)N(Cc2ccc3c(c2)OCO3)C(=O)N1c1ccc([N+](=O)[O-])c(C(F)(F)F)c1 (centres unmarked) [Example 98] | 94.87 |
|  |  | CN(C)CCN1C(=O)N(c2ccc([N+](=O)[O-])c(C(F)(F)F)c2)C(=O)C1c1ccc(O)cc1 (centres unmarked) [Example 114] | 1095.45 |
|  |  | CC1(c2ccc(O)cc2)C(=O)N(c2ccc(C#N)c(C(F)(F)F)c2)C(=O)N1S(C)(=O)=O (centres unmarked) [Example 243.1, 4-[2,5-dioxo-4-(4-hydroxyphenyl)-4-methyl-3-(methylsulphonyl)imidazolidin-1-yl]-2-trifluoromethylbenzonitrile] | 80 |
|  |  | CN1C(=O)N(c2ccc(C#N)c(C(F)(F)F)c2)C(=O)C1(C)c1ccc(OCCO)cc1 (centres unmarked) [Example 343] | 60 |
|  |  | CCOC(=O)CCN1C(=O)N(c2ccc([N+](=O)[O-])c(C(F)(F)F)c2)C(=O)C1c1ccc(O)cc1 (centres unmarked) [Example 75] | 600 |
